In patent publication US20230141603A1, “BENZODIAZEPINE DERIVATIVES AS GABA A GAMMA1 PAM” (Hoffmann-La Roche Inc., priority 2021, published 2023):

Experiments:
h-GABAA α1β3γ2 = molecular target: T1, h-GABAA α1β3γ2 (Homo sapiens, UniProt P14867+P18507); experiment: Radioligand binding assay, [3H]Flumazenil competition, HEK293F membranes; conditions: for LogSel / γ2/γ1 Selectivity Ratio: Table 3; for LogSel: Log[Ki α1β3γ2 (nM)/Ki α2β2γ1 (nM)]; for γ2/γ1 Selectivity Ratio: Ki α1β3γ2 (nM)/Ki α2β2γ1 (nM)
T1 construct: expressed in transfected cells; host or cells: HEK293F cells, membranes
Method: The affinity of compounds at GABAA γ2 subunit-containing receptors was measured by competition for [^3H]Flumazenil (81.1 Ci/mmol; Roche) binding to HEK293F cells expressing human (transiently transfected) receptors of composition α1β3γ2.
Harvested pellets from HEK293F cells expressing the different GABAA γ2 receptor subtypes were resuspended in Mannitol Buffer pH 7.2-7.4 and processed as described above for the cells expressing the GABAA γ1 subunit-containing receptors.
Assays were incubated to equilibrium for 1 hour at 4° C. and harvested onto GF/C uni-filters (Packard) by filtration using a Packard harvester and washing with ice-cold wash buffer (50 mM Tris; pH 7.5). After drying, filter-retained radioactivity was detected by liquid scintillation counting. Ki values were calculated using Excel-Fit (Microsoft) and are the means of two determinations.

h-GABAA α1β2γ1 = molecular target: T2, h-GABAA α1β2γ1 (Homo sapiens, UniProt P14867+Q8N1C3); experiment: Radioligand binding assay, [3H]RO7239181 competition, HEK293F membranes
T2 construct: expressed in transfected cells; host or cells: HEK293F cells (ThermoFisher R79007), membranes
T2 sequence (P14867 28-456): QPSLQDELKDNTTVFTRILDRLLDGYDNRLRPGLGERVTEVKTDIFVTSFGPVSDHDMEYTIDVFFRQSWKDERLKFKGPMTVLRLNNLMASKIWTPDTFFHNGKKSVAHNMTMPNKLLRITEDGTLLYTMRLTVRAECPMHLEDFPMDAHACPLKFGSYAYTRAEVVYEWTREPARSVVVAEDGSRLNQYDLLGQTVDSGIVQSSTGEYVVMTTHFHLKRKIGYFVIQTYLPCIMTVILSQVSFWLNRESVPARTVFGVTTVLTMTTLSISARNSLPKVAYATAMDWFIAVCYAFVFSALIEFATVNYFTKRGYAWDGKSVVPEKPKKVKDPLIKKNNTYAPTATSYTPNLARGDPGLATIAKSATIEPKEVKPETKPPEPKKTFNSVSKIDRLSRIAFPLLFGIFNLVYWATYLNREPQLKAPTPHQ
T2 sequence (P47870 25-512 partner limits assumed): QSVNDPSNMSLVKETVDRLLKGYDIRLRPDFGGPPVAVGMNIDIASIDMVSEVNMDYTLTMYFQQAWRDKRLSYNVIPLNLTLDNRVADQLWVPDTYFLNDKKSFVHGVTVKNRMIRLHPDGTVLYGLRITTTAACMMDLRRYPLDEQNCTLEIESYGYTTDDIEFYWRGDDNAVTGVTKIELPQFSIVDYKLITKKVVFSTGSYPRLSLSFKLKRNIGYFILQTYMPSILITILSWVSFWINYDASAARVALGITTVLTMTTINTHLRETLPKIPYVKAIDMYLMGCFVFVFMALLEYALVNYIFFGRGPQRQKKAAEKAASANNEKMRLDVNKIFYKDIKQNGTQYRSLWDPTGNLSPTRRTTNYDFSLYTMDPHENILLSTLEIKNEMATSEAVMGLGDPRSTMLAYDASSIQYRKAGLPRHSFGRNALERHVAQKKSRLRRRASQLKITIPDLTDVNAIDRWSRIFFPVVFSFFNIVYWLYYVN
T2 sequence (Q8N1C3 36-465): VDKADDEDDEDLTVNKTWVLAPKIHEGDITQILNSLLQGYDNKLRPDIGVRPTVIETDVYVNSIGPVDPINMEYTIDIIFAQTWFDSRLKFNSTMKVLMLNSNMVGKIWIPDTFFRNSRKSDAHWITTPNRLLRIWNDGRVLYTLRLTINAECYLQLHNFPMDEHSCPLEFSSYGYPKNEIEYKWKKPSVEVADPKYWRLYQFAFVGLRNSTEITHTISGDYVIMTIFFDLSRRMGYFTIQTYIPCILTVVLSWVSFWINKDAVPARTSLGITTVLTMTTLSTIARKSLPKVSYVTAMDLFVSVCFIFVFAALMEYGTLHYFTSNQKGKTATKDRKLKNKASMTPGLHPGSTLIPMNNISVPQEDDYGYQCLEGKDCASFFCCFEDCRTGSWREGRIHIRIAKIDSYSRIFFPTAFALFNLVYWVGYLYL
Method: (§1) The affinity of compounds at GABAA γ1 subunit-containing receptors was measured by competition for [^3H]RO7239181 (67.3 Ci/mmol; Roche) binding to membranes from HEK293F cells (ThermoFisher R79007) expressing human (transiently transfected) receptors of composition […], α2β2γ1, α1β2γ1.
(§2) Harvested pellets from HEK293F cells expressing the different GABAA receptor subtypes were resuspended in Mannitol Buffer pH 7.2-7.4 (Mannitol 0.29M, Triethylamine 10 mM, Acetic acid 10 mM, EDTA 1 mM plus protease inhibitors (20 tablets Complete, Roche Diagnostics Cat. No. 05 056 489 001 per liter)), washed two times and then resuspended at 1:10 to 1:15 dilution in the same buffer. Cell disruption was performed by stirring the suspension in a Parr vessel #4637 at 435 psi for 15 minutes, and then the suspensions were centrifuged at 1000×g for 15 minutes at 4° C. (Beckman Avanti J-HC; rotor JS-4.2). The supernatant (S1) was transferred in a 21 Schott flask and the pellet (P1) was resuspended with Mannitol Buffer up to 175 ml. The resuspended pellet was transferred into a 250 ml Corning centrifugal beaker and centrifuged at 1500×g for 10 minutes at 4° C. (Beckman Avanti J-HC; rotor JS-4.2). The supernatant (S1) was then transferred in the 21 Schott flask and the pellet was discarded. The supernatants (S1) were centrifuged in 500 ml Beckman polypropylene centrifugal beaker at 15′000×g for 30 minutes at 4° C. (Beckman Avanti J-20 XP; rotor JLA-10.500). The pellet (P2) was resuspended with Mannitol Buffer 1:1 and frozen at −80° C. The supernatant (S2) was centrifuged in 100 ml Beckman polypropylene centrifugal tubes at 48000×g for 50 minutes at 4° C. (Beckman Avanti J-20 XP; rotor JA-18). The supernatant (S3) was discarded and the pellet (P3) was resuspended with 1:1 Mannitol Buffer. The P2 and P3 protein concentration was determined with the BIORAD Standard assay method with bovine serum albumin as standard and measured on the NANO-Drop 1000. The membrane suspension was aliquots (500 μl per tube) and stored at −80° C. until required. Membrane homogenates were resuspended and polytronised (Polytron PT1200E Kinematica AG) in Potassium Phosphate 10 mM, KCl 100 mM binding buffer at pH 7.4 to a final assay concentration determined with a previous experiment.
(§3) Assays were incubated to equilibrium for 1 hour at 4° C. and then, membranes were filtered onto unifilter (96-well white microplate with bonded GF/C filters preincubated 20-50 minutes in 0.3% Polyethylenimine) with a Filtermate 196 harvester (Packard BioScience) and washed 4 times with cold Potassium Phosphate 10 mM pH 7.4, KCl 100 mM binding buffer. After drying, filter-retained radioactivity was detected by liquid scintillation counting. Ki values were calculated using Excel-Fit (Microsoft) and are the means of two determinations.

h-GABAA α2β2γ1 [1] = molecular target: T3, h-GABAA α2β2γ1 (Homo sapiens, UniProt P47869+Q8N1C3); experiment: as above; parameters: signal peptide of human GABAA α5 subunit (Met1 to Ser31), replacing the α2 signal peptide (N); expressed in transfected cells; host or cells: HEK293F cells (ThermoFisher R79007), membranes
T3 sequence (P47869 29-451): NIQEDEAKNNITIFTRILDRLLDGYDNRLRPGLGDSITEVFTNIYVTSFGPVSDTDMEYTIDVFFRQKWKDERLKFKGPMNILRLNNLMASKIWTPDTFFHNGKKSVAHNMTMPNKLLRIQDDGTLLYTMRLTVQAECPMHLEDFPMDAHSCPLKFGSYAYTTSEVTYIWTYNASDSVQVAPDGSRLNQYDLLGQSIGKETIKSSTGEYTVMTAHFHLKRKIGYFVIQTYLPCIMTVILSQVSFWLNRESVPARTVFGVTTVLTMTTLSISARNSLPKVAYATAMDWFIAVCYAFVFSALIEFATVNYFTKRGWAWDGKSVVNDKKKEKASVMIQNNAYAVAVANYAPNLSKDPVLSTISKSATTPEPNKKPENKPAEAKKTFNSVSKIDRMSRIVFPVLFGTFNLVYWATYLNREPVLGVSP
T3 sequence (P47870 25-512 partner limits assumed): T2 sequence (P47870 25-512 partner limits assumed)
T3 sequence (Q8N1C3 36-465): T2 sequence (Q8N1C3 36-465)
Method: as §1, §2, §3

h-GABAA α2β2γ1 [2] = molecular target: T3, h-GABAA α2β2γ1; experiment: Two-electrode voltage clamp electrophysiology in Xenopus oocytes, modulation of GABA EC20 current; assay type: cell-based; parameters: host or cells: Xenopus laevis oocytes, RNA micro-injection; conditions: α2β2γ1 GABAA receptor subtype expressing oocytes; reference PAMs
Method: Xenopus laevis oocytes at maturation stages V-VJ were used for the expression of cloned mRNA encoding GABAA receptor subunits. Oocytes ready for RNA micro-injection were bought from Ecocyte, Castrop-Rauxel, Germany and stored in modified Barth's medium (composition in mM: NaCl 88, KCl 1, NaHCO3 2.4, HEPES 10, MgSO4 0.82, CaNO3 0.33, CaCl2 0.33, pH=7.5) at 20° C. until the experiment.
Oocytes were plated in 96-well plates for microinjection using the Roboinject automated instrument (MultiChannelSystems, Reutlingen, Germany). Approximately 50 nL of an aqueous solution containing the RNA transcripts for the subunits of the desired GABAA receptor subtype was injected into each oocyte. […] Oocytes were kept in modified Barth's medium (composition in mM: NaCl 88, KCl 1, NaHCO3 […], HEPES 10, MgSO4 0.82, CaNO3 0.33, CaCl2 0.33, pH=7.5) at 20° C. until the experiment.
Electrophysiological experiments were performed using the Roboocyte instrument (MultiChannelSystems, Reutlingen, Germany) on days 3 to 5 after the micro-injection of mRNA. During the experiment the oocytes were constantly superfused by a solution containing (in mM) NaCl 90, KCl 1, HEPES 5, MgCl2 1, CaCl2 1 (pH 7.4). Oocytes were impaled by two glass microelectrodes (resistance: 0.5-0.8 MΩ) which were filled with a solution containing KCl 1M+K-acetate 1.5 M and voltage-clamped to −80 mV. The recordings were performed at room temperature using the Roboocyte two-electrode voltage clamp system (Multichannelsystem). After an initial equilibration period of 1.5 min GABA was added for 1.5 min at a concentration evoking approximately 20% of a maximal current response (EC20). After another rest interval of 2.5 min GABA was again added evoking a response of similar amplitude and shape. […] Current traces were recorded at a digitization rate of 10 Hz during and shortly before and after the GABA application.
Each compound and concentration was tested on at least 3 oocytes. Different oocytes were used for different compound concentrations.
For the analysis, the digitized current traces of the first and second GABA response were superimposed and, if necessary, rescaled to equal maximal amplitudes. The ratio between the two responses during the time interval of test compound application was calculated point by point. The extremum of the resulting “ratio trace” was taken as the efficacy (“Fold increase”) of the compound expressed as “% modulation of GABA EC20” (100*(Fold increase−1)).

| Structure (SMILES) | Ki (h-GABAA α1β3γ2) [nM] | LogSel (h-GABAA α1β3γ2) | Ki (h-GABAA α1β2γ1) [nM] | Ki (h-GABAA α2β2γ1 [1]) [nM] | γ2/γ1 Selectivity Ratio (h-GABAA α1β3γ2) | potentiation of the GABA-induced current (h-GABAA α2β2γ1 [2]) [%] |
| --- | --- | --- | --- | --- | --- | --- |
| Cc1nnc2n1-c1ccc(Cl)cc1C(c1ccccc1)=NC2 [Alprazolam, reference compound] | 19.6 | −2.3 | 5920 | 3940 |  |  |
| Clc1ccc2c(c1)C(c1ccccc1)=NCc1nncn1-2 [Estazolam, reference compound] | 28.4 | −2.0 |  | 3180 |  |  |
| Cc1nnc2n1-c1ccc(Br)cc1C(c1c(F)cccc1F)=NC2 [RE-A, 8-bromo-6-(2,6-difluorophenyl)-1-methyl-4H-[1,2,4]triazolo[4,3-a][1,4]benzodiazepine, reference compound] | 5.6 | −0.74 |  | 32.1 | 0.18 |  |
| Cc1nnc2n1-c1ccc(C(F)(F)F)cc1C(c1c(F)cccc1F)=NC2 [RE-B, 6-(2,6-difluorophenyl)-1-methyl-8-(trifluoromethyl)-4H-[1,2,4]triazolo[4,3-a][1,4]benzodiazepine, reference compound] | 15.6 | −0.64 |  | 68.4 | 0.23 |  |
| Cc1nnc2n1-c1ccccc1C(c1c(F)cccc1F)=NC2 [RE-C, 6-(2,6-difluorophenyl)-1-methyl-4H-[1,2,4]triazolo[4,3-a][1,4]benzodiazepine, reference compound] | 5.8 | −2.0 |  | 627 | 0.0092 |  |
| Cc1nnc2n1-c1cccc(Cl)c1C(c1c(F)cccc1F)=NC2 [RE-G, 7-chloro-6-(2,6-difluorophenyl)-1-methyl-4H-[1,2,4]triazolo[4,3-a][1,4]benzodiazepine, reference compound] | 302 | 0.99 |  | 30.8 | 9.8 |  |
| Cc1nnc2n1-c1ccc(Cl)cc1C(c1ccccc1Cl)=NC2 [Triazolam, reference compound] |  | −1.5 |  |  |  | ~60 |
